Assay results taken from patent US12091393B2, “Small molecule vaccine adjuvant for enhancing or prolonging immune response” (The Regents of the University of California, priority 2018, dated 2024).
Like-named read-outs stand apart in the source and are kept apart here.

Assays:
NF-κB = assay: Measurement of NF-κB activation using THP1-Blue NF-κB cells (SEAP); format: cell-based; conditions: for activity at 5 µM: 20 h, two point normalized, compound 1 as 200%; for NF-κB activity (SAR discussion, in words): evaluated in both the presence and absence of LPS
THP-1 cells = assay: Cell viability assay (MTT); format: cell-based; conditions: compound 5 μM alone, 18 h, normalized to DMSO as 100%
Experimental: THP-1 cells were plated in 96-well plates (10^5 cells/well) in 100 μL RPMI supplemented with 10% FBS, 100 U/mL penicillin and 100 μg/ml streptomycin. Compounds were dissolved in DMSO at 1 mM stock solution and were further diluted to 10 μM in the assay medium. 100 μL of this solution was added to the cells to obtain a final compound concentration of 5 μM ([…]). After 18 h incubation, a solution of MTT in assay media (0.5 mg/mL) was added to each well and further incubated for 4 to 6 h, followed by addition of cell lysis buffer (15% w/v SDS and 0.12% v/v 12N HCl aqueous solution), incubated overnight, and then absorbance measured at 570 nm using 650 nm as reference using Tecan Infinite M200 plate reader.

[1] = compound 5 μM + LPS, LPS (10 ng/mL) as 100%, read-out: NF-κB SEAP Compound + LPS % Activation
[2] = compound 5 μM alone, LPS or DMSO as 100%, read-out: NF-κB SEAP Compound alone % Activation

With `CCc1ccc(C)c(-c2csc(NC(=O)c3ccc(S(=O)(=O)N4CCCCC4)cc3)n2)c1` [Compound 12u, N-(4-(5-ethyl-2-methylphenyl)thiazol-2-yl)-4-(piperidin-1-ylsulfonyl)benzamide] the activity at 5 µM (NF-κB; [1]) was 200%, the activity at 5 µM (NF-κB; [2]) was 216% and the “NF-κB activity (SAR discussion, in words)” value (“NF-κB activity” below) (NF-κB) was “resulted in activity”.

`CCCC#Cc1sc(NC(=O)c2ccc(S(=O)(=O)N3CCC(CCC)CC3)cc2)nc1-c1cc(C)ccc1Br` [Compound 65, N-(4-(2-bromo-5-methylphenyl)-5-(pent-1-yn-1-yl)thiazol-2-yl)-4-((4-propylpiperidin-1-yl)sulfonyl)benzamide] was tested, and the “NF-κB activity” value (NF-κB) was “very potent and showed better potency than compound 1”.

With `Cc1ccc(C)c(-c2csc(NC(=O)c3ccc(S(=O)(=O)N4CCCCC4)s3)n2)c1` [Compound 46c, N-(4-(2,5-dimethylphenyl)thiazol-2-yl)-5-(piperidin-1-ylsulfonyl)thiophene-2-carboxamide] the activity at 5 µM (NF-κB; [1]) was 97.2%, the activity at 5 µM (NF-κB; [2]) was 106% and the “NF-κB activity” value (NF-κB) was “none of these modifications at site D or E were tolerated”.

In the case of `CCc1sc(NC(=O)c2ccc(S(=O)(=O)N3CCCCC3)cc2)nc1-c1cc(C)ccc1C` [Compound 18r, N-(4-(2,5-dimethylphenyl)-5-ethylthiazol-2-yl)-4-(piperidin-1-ylsulfonyl)benzamide], the activity at 5 µM (NF-κB; [1]) is reported as 179%, the activity at 5 µM (NF-κB; [2]) is reported as 179% and the “NF-κB activity” value (NF-κB) is reported as “retained activity”. The “MTT Compound alone % Viability” value (THP-1 cells) was 103.66%.

In the case of `Cc1ccc(C)c(-c2nc(NC(=O)c3ccc(S(=O)(=O)N4CCCCC4)cc3)sc2C#CCCCO)c1` [Compound 18u, N-(4-(2,5-dimethylphenyl)-5-(5-hydroxypent-1-yn-1-yl)thiazol-2-yl)-4-(piperidin-1-ylsulfonyl)benzamide], the activity at 5 µM (NF-κB; [1]) is reported as 134%, the activity at 5 µM (NF-κB; [2]) is reported as 100% and the “MTT Compound alone % Viability” value (THP-1 cells) is reported as 104.08%.

With `CCOc1sc(NC(=O)c2ccc(S(=O)(=O)N3CCCCC3)cc2)nc1-c1cc(C)ccc1C` [Compound 18l, N-(4-(2,5-dimethylphenyl)-5-ethoxythiazol-2-yl)-4-(piperidin-1-ylsulfonyl)benzamide] the activity at 5 µM (NF-κB; [1]) was 111%, the activity at 5 µM (NF-κB; [2]) was 104% and the “NF-κB activity” value (NF-κB) was “partial activity”.

`Cc1ccc(C)c(-c2nnc(NC(=O)c3ccc(S(=O)(=O)N4CCCCC4)cc3)s2)c1` [Compound 18f, N-(5-(2,5-dimethylphenyl)-1,3,4-thiadiazol-2-yl)-4-(piperidin-1-ylsulfonyl)benzamide] was tested, and the activity at 5 µM (NF-κB; [1]) was 148%, the activity at 5 µM (NF-κB; [2]) was 99.7% and the “NF-κB activity” value (NF-κB) was “none of these molecules that replaced the thiazole functionality were active”. For the same compound, the “MTT Compound alone % Viability” value (THP-1 cells) was 89.80%.

With `Cc1ccc(C)c(-c2nc(NC(=O)c3ccc(S(=O)(=O)N4CCCCC4)cc3)sc2-c2ccccc2)c1` [Compound 18i, N-(4-(2,5-dimethylphenyl)-5-phenylthiazol-2-yl)-4-(piperidin-1-ylsulfonyl)benzamide] the activity at 5 µM (NF-κB; [1]) was 98.4%, the activity at 5 µM (NF-κB; [2]) was 98.3% and the “NF-κB activity” value (NF-κB) was “completely inactive”.

With `C#CCN(C(=O)c1ccc(S(=O)(=O)N2CCCCC2)cc1)c1nc(-c2cc(C)ccc2C)cs1` [Compound 34d, N-(4-(2,5-dimethylphenyl)thiazol-2-yl)-4-(piperidin-1-ylsulfonyl)-N-(prop-2-yn-1-yl)benzamide] the activity at 5 µM (NF-κB; [1]) was 97.7%, the activity at 5 µM (NF-κB; [2]) was 101% and the “NF-κB activity” value (NF-κB) was “inactive”.

With `Cc1ccc(C)c(-c2cnc(NC(=O)c3ccc(S(=O)(=O)N4CCCCC4)cc3)s2)c1` [Compound 18e, N-(5-(2,5-dimethylphenyl)thiazol-2-yl)-4-(piperidin-1-ylsulfonyl)benzamide] the activity at 5 µM (NF-κB; [1]) was 95.1%, the activity at 5 µM (NF-κB; [2]) was 98.3% and the “NF-κB activity” value (NF-κB) was “none of these molecules that replaced the thiazole functionality were active”.
